Measured values from ChEMBL document CHEMBL1201862, “PubChem BioAssay data set” (2004).
Calls of active or inactive are those of the source.

Columns and labels:
Protein Tat = Protein Tat (Human immunodeficiency virus type 1 group M subtype B (isolate HXB2)(HIV-1), UniProt P04608); type: functional;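 further: tat binding to TAR RNA read out by fluorescence polarization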
[1] = target: Bifunctional protein GlmU (Mycobacterium tuberculosis, UniProt P9WMN3); assay: Inhibitors of Mycobacterial Glucosamine-1-phosphate acetyl transferase (GlmU). Secondary screen.; set-up: species or system Mycobacterium tuberculosis H37Rv
Chain of Bifunctional protein GlmU (P9WMN3 whole entry): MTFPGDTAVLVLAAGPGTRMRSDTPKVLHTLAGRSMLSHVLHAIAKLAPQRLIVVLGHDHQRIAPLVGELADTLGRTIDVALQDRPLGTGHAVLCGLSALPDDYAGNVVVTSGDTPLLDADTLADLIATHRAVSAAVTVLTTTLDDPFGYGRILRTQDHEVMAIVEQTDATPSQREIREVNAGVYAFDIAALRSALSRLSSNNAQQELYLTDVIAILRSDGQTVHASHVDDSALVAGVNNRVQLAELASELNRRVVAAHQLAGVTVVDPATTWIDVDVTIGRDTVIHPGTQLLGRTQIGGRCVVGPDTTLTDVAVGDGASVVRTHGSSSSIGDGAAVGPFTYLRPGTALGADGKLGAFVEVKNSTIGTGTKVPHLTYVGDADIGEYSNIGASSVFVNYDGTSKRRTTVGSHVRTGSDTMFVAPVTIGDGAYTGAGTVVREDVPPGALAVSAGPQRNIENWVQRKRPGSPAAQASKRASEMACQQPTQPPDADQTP

Cysteine protease ATG4B = target: T1, Cysteine protease ATG4B (Homo sapiens, UniProt Q9Y4P1); type: functional;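 further: Fluorescence-based dose-response confirmation assay measuring inhibition of ATG4B activity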
T1 sequence (Q9Y4P1 whole entry): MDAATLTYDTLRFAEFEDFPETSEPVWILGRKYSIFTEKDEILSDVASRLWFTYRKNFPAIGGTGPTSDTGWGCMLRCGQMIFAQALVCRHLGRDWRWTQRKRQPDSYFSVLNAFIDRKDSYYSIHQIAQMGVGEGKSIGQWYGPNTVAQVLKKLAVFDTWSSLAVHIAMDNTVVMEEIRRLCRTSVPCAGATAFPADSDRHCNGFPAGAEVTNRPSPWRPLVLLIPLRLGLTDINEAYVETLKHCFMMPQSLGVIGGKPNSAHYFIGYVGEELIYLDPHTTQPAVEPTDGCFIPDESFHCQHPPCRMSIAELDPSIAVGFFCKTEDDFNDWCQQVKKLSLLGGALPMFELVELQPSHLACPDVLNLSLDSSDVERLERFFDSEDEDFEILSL

Phospholipase A2 = Phospholipase A2 (Homo sapiens, UniProt P04054); type: functional;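 further: confirmatory dose-response counterscreen on phospholipase A2, testing hits that came from an ultra-high-throughput screen for ATG4B inhibitors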
Chain of Phospholipase A2 (P04054 whole entry): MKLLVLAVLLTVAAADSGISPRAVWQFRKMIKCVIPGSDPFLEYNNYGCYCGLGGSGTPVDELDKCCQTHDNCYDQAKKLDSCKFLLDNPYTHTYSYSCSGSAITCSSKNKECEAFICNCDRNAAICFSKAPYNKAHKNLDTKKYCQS

[2] = HPDE-C7 pancreatic duct cell viability loss – fluorescence, HTS (AID 430); type: functional, cell-based; settings: Homo sapiens
[3] = viability loss of HPDE-C7K cells – cell-based, fluorescence, HTS, primary screen (AID 431); type: functional; settings: Homo sapiens
[4] = target: Mitogen-activated protein kinase 10 (Homo sapiens, UniProt P53779); assay: Dose response biochemical screening assay for inhibitors of c-Jun N-Terminal Kinase 3 (JNK3). [Related pubchem assays: 746 ]
Vero = assay: viability of Vero cells under compound – cytotoxicity control for flavivirus capping enzyme inhibitors (AID 588742); type: functional; settings: Chlorocebus sabaeus
Genome polyprotein = Genome polyprotein (dengue virus type 2, UniProt P29990); assay: flavivirus cap methylation enzyme inhibition – biochemical, confirmation dose response, primary screen (AID 588689); type: functional
Chain of Genome polyprotein (P29990 2492-3391 limits assumed): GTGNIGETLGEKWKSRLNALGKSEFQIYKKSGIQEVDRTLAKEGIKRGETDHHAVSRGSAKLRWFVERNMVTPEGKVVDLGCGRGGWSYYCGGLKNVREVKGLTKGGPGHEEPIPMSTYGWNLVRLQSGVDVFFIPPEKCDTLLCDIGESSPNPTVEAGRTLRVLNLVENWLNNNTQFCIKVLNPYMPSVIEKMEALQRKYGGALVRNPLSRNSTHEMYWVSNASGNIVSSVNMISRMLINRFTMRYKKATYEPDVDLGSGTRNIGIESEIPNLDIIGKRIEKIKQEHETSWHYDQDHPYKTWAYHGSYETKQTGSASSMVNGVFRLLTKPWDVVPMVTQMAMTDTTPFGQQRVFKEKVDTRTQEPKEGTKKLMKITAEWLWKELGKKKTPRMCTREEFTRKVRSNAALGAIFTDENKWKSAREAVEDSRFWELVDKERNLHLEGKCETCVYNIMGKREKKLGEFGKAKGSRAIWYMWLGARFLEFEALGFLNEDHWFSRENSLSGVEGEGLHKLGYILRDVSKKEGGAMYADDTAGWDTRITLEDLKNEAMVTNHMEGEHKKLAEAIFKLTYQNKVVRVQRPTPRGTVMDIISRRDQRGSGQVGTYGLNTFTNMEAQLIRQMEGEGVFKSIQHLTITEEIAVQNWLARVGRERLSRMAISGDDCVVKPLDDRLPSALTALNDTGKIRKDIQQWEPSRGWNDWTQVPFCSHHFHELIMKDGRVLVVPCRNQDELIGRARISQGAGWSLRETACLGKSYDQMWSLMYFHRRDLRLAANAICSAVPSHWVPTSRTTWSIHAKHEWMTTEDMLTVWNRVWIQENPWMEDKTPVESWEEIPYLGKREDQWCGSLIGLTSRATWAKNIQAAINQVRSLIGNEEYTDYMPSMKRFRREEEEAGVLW

[5] = target: Glucose-6-phosphate 1-dehydrogenase (Homo sapiens, UniProt P11413); assay: inhibition of Homo sapiens G6PD, dose series – biochemical, fluorescence, selectivity assay for P. falciparum G6PD inhibitor project, dose response (AID 504792); type: functional
Chain of Glucose-6-phosphate 1-dehydrogenase (P11413 whole entry): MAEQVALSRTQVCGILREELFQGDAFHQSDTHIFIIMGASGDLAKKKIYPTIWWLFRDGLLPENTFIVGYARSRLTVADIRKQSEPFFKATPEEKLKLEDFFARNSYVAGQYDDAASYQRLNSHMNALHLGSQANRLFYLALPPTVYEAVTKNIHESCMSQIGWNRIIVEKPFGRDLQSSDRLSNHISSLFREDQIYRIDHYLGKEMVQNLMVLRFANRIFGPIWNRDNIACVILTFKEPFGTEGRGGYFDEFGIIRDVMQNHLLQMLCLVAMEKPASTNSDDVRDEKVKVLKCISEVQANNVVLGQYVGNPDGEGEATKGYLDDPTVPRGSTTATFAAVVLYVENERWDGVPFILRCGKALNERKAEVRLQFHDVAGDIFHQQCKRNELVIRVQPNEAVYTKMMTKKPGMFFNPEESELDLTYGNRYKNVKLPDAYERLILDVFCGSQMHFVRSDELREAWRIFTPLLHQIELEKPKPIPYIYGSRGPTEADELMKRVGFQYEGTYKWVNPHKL

[6] = target: Sphingosine 1-phosphate receptor 2 (Homo sapiens, UniProt O95136); assay: Dose Response Cell Based Assay for Antagonists of the S1P2 Receptor. [Related pubchem assays: 856, 736 ]; type: functional
Chain of Sphingosine 1-phosphate receptor 2 (O95136 whole entry): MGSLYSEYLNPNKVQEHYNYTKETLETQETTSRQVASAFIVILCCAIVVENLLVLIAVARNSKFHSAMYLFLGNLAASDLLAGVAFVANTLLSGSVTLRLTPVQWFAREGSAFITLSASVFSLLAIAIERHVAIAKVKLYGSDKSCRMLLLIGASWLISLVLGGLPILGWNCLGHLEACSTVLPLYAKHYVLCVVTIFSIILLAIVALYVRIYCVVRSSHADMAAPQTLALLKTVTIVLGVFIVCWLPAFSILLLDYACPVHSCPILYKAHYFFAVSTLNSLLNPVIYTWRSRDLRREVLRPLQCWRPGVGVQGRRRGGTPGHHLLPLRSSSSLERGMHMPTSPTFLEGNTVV

[7] = reduced cellular PGC1a acetyl-lysine signal – cell-based, cherry-picked samples, dose response (AID 720514); type: functional;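 further: potency may reflect raised or lowered acetylation signal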
[8] = Luminescence Cell-Based Dose Response HTS to Identify Activators of Luciferase Translation or Activity in H4 […] Cells. [Related pubchem assays: 1829 (Project Summary), 1814 (Primary HTS)]; type: functional
[9] = Luminescence-based cell-based high throughput dose response assay to identify activators of the DAF-12 from the parasite S. stercoralis (ssDAF-12).; type: functional
[10] = target: T2, Oxysterols receptor LXR-beta (Homo sapiens, UniProt P55055); assay: LXR agonists, Gal4 luciferase reporter, dose response, counter-screen for ssDAF-12 agonist project, cell-based, luminescence, HEK293, S. stercoralis campaign (AID 720737); type: functional; settings: read-out: IC50 (the source's name)
T2 sequence (P55055 whole entry): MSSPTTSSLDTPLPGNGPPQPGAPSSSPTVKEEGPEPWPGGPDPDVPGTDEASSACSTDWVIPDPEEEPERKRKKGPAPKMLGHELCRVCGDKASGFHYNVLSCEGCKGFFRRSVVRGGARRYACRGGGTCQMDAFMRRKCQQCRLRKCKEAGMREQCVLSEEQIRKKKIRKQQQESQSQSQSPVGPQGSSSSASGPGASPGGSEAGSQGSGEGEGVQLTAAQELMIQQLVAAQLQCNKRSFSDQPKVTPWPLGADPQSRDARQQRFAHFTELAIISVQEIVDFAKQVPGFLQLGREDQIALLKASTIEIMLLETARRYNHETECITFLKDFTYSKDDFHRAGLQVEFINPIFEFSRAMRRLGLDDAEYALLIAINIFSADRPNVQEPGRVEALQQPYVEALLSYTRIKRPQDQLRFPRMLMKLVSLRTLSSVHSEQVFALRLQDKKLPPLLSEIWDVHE

[11] = target: SWI/SNF-related matrix-associated actin-dependent regulator of chromatin subfamily A member 2 (Homo sapiens, UniProt P51531); assay: Luminescence-based cell-based high throughput dose response assay to identify activators of the function of SWI/SNF related, matrix associated, actin dependent regulator of chromatin, subfamily a, member 2 (SMARCA2, BRM).; type: functional
Chain of SWI/SNF-related matrix-associated actin-dependent regulator of chromatin subfamily A member 2 (P51531 whole entry): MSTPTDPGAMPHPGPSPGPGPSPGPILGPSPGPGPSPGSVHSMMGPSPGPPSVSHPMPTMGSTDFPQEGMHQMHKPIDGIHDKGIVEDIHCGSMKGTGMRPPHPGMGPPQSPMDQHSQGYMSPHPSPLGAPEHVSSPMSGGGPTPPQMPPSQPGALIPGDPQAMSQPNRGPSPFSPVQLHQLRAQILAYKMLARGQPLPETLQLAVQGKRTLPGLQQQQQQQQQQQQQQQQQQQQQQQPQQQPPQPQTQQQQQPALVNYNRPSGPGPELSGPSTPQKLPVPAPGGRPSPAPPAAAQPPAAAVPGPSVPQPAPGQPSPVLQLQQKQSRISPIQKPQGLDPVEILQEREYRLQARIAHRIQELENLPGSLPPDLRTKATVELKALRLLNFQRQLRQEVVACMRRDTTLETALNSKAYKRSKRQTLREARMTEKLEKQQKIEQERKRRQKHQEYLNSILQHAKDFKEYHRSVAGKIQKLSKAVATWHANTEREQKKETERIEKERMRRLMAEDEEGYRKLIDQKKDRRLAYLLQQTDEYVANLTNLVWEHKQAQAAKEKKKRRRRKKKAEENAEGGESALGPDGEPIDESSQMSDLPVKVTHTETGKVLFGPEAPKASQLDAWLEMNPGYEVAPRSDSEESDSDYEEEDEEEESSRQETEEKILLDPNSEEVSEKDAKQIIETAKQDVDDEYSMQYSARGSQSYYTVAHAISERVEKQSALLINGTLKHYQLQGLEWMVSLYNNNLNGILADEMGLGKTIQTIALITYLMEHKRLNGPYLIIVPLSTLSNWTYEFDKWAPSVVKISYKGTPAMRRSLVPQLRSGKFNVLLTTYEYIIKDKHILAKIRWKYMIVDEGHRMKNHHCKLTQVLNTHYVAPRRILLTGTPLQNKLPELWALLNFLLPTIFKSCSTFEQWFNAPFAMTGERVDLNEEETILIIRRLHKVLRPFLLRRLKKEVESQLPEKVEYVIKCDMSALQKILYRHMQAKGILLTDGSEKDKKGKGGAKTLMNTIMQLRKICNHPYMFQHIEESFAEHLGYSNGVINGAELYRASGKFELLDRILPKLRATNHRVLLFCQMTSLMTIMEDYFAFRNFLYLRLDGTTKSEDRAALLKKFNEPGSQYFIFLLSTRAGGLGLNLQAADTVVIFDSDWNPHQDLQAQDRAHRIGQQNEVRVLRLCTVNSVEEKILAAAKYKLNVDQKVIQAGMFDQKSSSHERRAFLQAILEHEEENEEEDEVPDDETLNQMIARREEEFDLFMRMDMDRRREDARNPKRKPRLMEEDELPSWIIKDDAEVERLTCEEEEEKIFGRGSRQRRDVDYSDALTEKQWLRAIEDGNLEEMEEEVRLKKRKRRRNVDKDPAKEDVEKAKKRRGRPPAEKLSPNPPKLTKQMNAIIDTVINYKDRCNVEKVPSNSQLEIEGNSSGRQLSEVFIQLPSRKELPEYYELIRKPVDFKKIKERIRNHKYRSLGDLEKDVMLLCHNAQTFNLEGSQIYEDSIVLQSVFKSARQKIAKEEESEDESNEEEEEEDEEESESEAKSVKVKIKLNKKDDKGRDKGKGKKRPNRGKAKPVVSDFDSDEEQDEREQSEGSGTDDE

Caspase-6 = target: T3, Caspase-6 (Homo sapiens, UniProt P55212); assay: inhibition of CASP6 peptide cleavage – biochemical, VEID-R110 fluorescence, cherry-pick, dose response (AID 720632)
T3 sequence (P55212 whole entry): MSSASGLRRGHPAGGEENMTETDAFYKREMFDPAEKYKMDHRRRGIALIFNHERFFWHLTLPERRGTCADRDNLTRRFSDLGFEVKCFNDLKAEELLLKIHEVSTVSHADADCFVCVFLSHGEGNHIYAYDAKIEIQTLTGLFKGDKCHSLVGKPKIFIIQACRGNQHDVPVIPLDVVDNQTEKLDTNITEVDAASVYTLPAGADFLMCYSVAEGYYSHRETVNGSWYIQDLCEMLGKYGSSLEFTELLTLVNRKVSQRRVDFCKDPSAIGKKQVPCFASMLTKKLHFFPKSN

ELAV-like protein 1 = ELAV-like protein 1 (Homo sapiens, UniProt Q15717); assay: Identify HuR specific inhibitors.; type: functional
Chain of ELAV-like protein 1 (Q15717 whole entry, the tested form may be a part): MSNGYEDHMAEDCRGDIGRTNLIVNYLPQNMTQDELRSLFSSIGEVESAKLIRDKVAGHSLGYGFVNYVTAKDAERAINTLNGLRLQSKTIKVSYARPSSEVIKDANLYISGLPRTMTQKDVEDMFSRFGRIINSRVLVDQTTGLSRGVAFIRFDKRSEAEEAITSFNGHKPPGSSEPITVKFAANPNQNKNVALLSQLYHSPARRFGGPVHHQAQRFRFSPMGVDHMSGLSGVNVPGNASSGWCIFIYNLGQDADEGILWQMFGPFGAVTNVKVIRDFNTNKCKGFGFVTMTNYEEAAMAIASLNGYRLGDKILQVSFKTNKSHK

[12] = target: T4, Carboxy-terminal domain RNA polymerase II polypeptide A small phosphatase 1 (Homo sapiens, UniProt Q9GZU7); assay: CTDSP1 inhibitors, concentration-response, biochemical, absorbance readout, ultra-high-throughput screen actives (AID 540297); type: functional
T4 sequence (Q9GZU7 whole entry): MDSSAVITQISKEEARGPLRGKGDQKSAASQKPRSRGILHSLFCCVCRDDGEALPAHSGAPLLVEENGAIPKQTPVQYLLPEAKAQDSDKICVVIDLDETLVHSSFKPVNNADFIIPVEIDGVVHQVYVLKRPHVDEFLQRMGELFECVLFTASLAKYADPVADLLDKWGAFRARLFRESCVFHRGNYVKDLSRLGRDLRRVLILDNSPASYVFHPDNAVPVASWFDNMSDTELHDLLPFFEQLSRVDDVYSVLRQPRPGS

[13] = Counterscreen for activators of the function of SWI/SNF related, matrix associated, actin dependent regulator of chromatin, subfamily a, member 2 (SMARCA2, BRM): Luminescence-based cell-based high throughput dose response assay to identify non-selective compounds using the VP16 reporter assay.; type: functional
[14] = PAX8-dependent cell viability loss – plate reader, dry powder, dose response (AID 743049); type: functional, cell-based
Paired box protein Pax-8 = Paired box protein Pax-8 (Homo sapiens, UniProt Q06710); assay: PAX8 transcriptional activity inhibition in RMG-I – RMG-I cells, luciferase, cherry-pick, dose response (AID 687027); type: functional, cell-based;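 further: luciferase reporter driven by Pax8 target thyroperoxidase promoter measured by SteadyGlo luminescence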
Chain of Paired box protein Pax-8 (Q06710 whole entry): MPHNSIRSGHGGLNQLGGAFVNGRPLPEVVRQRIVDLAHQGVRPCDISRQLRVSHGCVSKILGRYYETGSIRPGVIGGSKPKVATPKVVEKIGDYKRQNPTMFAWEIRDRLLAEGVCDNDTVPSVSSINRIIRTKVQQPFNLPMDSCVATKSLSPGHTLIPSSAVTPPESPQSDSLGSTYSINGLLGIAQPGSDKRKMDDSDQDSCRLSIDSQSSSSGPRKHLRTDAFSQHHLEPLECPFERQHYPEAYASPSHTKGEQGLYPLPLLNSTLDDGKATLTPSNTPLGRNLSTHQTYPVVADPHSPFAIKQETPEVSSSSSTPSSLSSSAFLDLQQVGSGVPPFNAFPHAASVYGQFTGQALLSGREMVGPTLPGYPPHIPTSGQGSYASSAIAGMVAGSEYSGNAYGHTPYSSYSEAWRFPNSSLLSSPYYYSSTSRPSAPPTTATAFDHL

[15] = PAX5 cellular inhibition readout – cell-based, plate reader, dry powder samples, selectivity assay for PAX8 inhibitor project, dose response (AID 743047); type: functional;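 further: HEK293 cells carrying a Pax5 driven CD19 promoter luciferase reporter; potency of inhibitors that lower reporter luminescence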
[16] = OVCAR8 cell viability loss – plate reader, dry powder samples, PAX8 project, dose response (AID 743197); type: functional, cell-based; settings: OVCAR-8
[17] = IGROV1 cell killing – plate reader, dry powder samples, PAX8 inhibitor project, dose response (AID 743043); type: functional, cell-based; settings: IGROV-1
[18] = COV434 cell viability loss – plate reader, dry powder, SA7, cytotoxicity control for PAX8 inhibitor project, dose response (AID 743145); type: functional, cell-based
[19] = inhibitors acting on PAX2 in cells – cell-based, plate reader, dry powder samples, selectivity assay for PAX8 inhibitor project, dose response (AID 743048); type: functional;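 further: HEK293 cells carrying a WT1 promoter luciferase reporter driven by expressed Pax2; potency is for inhibition of Pax2 driven reporter signal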
[20] = OVCAR-3 cell viability loss – plate reader, dry powder samples, PAX8 inhibitor project, dose response (AID 743044); type: functional, cell-based

Chain of Protein Tat (P04608 whole entry): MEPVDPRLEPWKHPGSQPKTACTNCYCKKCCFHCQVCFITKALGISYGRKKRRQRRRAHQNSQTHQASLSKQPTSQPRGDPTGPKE

Question: For `CCCCn1c(N)c(N(CCOC)C(=O)c2cc(-c3ccco3)nc3ccccc23)c(=O)[nH]c1=O`, which IC50 (Protein Tat) is on record?
Answer: > 100 µM (active)

Question: With `C=CC#CC[N+]1(CC#Cc2ccccc2)CCOCC1` as the compound, how does the IC50 [1] read?
Answer: 124 µM (active)

Question: What about the IC50 (Cysteine protease ATG4B) of the same compound?
Answer: 5.56 µM (active)

Question: What about the IC50 (Phospholipase A2) of the same compound?
Answer: 11.8 µM (active)

Question: Which EC50 [2] does the source give for `CC(=O)Nc1cc(OC(C)=O)c2nonc2c1OC(C)=O` here?
Answer: 5.65 µM (active)

Question: And the EC50 [3]?
Answer: 6.32 µM (active)

Question: What about the IC50 [4] of the same compound?
Answer: 46.6 µM (not active)

Question: What about the CC50 (Vero) of the same compound?
Answer: 12.6 µM (active)

Question: What about the IC50 (Genome polyprotein) of the same compound?
Answer: 38 µM (active)

Question: And the IC50 [5]?
Answer: > 80 µM (inactive)

Question: And the IC50 [6]?
Answer: 6.21 µM (active)

Question: And the AC50 [7]?
Answer: 4.89 µM (active)

Question: Which EC50 [8] does the source give for `Cc1c(C(=O)Nc2ccccn2)oc2ccccc12` here?
Answer: 0.901 µM (active)

Question: And the IC50 [9]?
Answer: > 67.5 µM (inactive)

Question: What about the EC50 [10] of the same compound?
Answer: > 67.5 µM (inactive)

Question: Which EC50 [11] does the source give for `CC#CC#Cc1cccc(=O)o1` here?
Answer: > 91 µM (inactive)

Question: What about the AC50 (Caspase-6) of the same compound?
Answer: 9.68 µM (active)

Question: And the IC50 (ELAV-like protein 1)?
Answer: 44.4 µM (active)

Question: What about the IC50 [12] of the same compound?
Answer: 16.5 µM (active)

Question: And the EC50 [13]?
Answer: > 91 µM (inactive)

Question: Which results are given for `O=C(C[C@H]1CC[C@H]2[C@@H](COC[C@@H](O)CN2S(=O)(=O)c2cccc(Cl)c2)O1)Nc1ccc(-c2ccccc2)cc1`?
Answer: AC50 [14]: 20.3 µM (active); AC50 (Paired box protein Pax-8): 8.28 µM (active); AC50 [15]: 3.85 µM (active); AC50 [16]: 27.7 µM (active); AC50 [17]: 31.2 µM (active); AC50 [18]: 37.9 µM (active); AC50 [19]: 8.55 µM (active); AC50 [20]: 43 µM (active)
